Experimental data reported in paper PMC9738591, “N-[1,3-Dialkyl(aryl)-2-oxoimidazolidin-4-ylidene]-aryl(alkyl)sulphonamides as Novel Selective Human Cannabinoid Type 2 Receptor (hCB2R) Ligands; Insights into the Mechanism of Receptor Activation/Deactivation” (Molecules, 2022).
Read-outs that look alike come from different tables or passages of the source.

Legend:
human CB2R = human CB2R (Homo sapiens, UniProt P34972); assay: Competition binding assay, displacement of [3H]-CP-55,940 from membranes of HEK-293 cells overexpressing CB2R; design: purchased Perkin-Elmer, Italy; host or cells: HEK-293 cells (membranes); settings: for Ki: [3H]-CP-55,940 displacement, HEK-293 membranes, 90 min at 30 °C, Cheng-Prusoff, read-out: Ki hCB2R (µM ± S.E.)
Procedure: (§1) The binding affinities (Ki values) of the compounds for human recombinant hCB1R and hCB2R were determined as previously described, using SR144528 as a reference compound [30], and are reported in Table 1.
(§2) Compound affinity for CB1R and CB2R was measured as previously reported. […] Competition curves were performed by displacing [^3H]-CP-55 940 with increasing concentrations of compounds (0.1 nM–10 or 25 μM). […] All compounds were tested following the procedure described by the manufacturer (Perkin-Elmer, Italy). Displacement curves were generated by incubating drugs with [^3H]-CP-55 940 for 90 min at 30 °C. Ki values were calculated by applying the Cheng−Prusoff equation to the IC50 values for the displacement of the bound radioligand by increasing concentrations of the test compound. Data represent the mean values of three independent experiments performed in duplicate and are expressed as the average of Ki (µM) ± standard deviation. Data were analyzed using PRISM.9.3 software (GraphPad Software Inc, San Diego, CA, USA).

human recombinant CB1R = biological target: T1, human recombinant CB1R (Homo sapiens, UniProt P21554); assay: Competition binding assay, displacement of [3H]-CP-55,940 from membranes of HEK-293 cells overexpressing CB1R; settings: for Ki: [3H]-CP-55,940 displacement, HEK-293 membranes, 90 min at 30 °C, Cheng-Prusoff, read-out: Ki hCB1R (µM ± S.E.); for inhibition at 10 µM: read-out: % Displacement/ Max. Conc. Tested, hCB1R
T1 construct: purchased Perkin-Elmer, Italy; host or cells: HEK-293 cells (membranes)
Procedure: as §1, §2

[1] = max conc. tested 10 µM, read-out: % Displacement/ Max Conc. Tested, hCB2R (converted)

T1 sequence (P21554 whole entry): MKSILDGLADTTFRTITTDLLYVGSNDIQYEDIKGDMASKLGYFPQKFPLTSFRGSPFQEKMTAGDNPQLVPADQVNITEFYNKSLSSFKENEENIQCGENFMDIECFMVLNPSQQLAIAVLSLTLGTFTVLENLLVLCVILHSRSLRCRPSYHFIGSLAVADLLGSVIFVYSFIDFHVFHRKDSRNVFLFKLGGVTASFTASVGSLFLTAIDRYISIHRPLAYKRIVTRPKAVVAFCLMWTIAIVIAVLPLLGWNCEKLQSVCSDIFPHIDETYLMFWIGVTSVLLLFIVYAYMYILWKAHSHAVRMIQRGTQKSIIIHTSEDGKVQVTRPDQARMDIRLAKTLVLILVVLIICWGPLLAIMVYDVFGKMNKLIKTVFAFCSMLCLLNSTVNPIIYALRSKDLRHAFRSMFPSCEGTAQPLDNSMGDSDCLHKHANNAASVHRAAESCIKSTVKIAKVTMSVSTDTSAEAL
Chain of human CB2R (P34972 whole entry): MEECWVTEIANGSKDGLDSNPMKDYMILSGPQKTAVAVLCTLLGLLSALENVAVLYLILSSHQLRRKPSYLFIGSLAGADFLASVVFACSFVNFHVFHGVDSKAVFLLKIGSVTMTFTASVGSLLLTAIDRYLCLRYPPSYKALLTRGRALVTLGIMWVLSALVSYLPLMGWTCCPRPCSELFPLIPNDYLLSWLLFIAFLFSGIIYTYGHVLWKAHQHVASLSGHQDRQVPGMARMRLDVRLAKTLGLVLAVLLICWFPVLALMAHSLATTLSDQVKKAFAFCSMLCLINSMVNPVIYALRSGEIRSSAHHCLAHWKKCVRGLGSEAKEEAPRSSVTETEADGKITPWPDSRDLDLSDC

Row | inhibition at 10 µM (human recombinant CB1R; max conc. tested 10 µM) [%] | SMILES | Ki (human CB2R) [µM] | inhibition at 10 µM (human CB2R; [1]) [%] | Ki (human recombinant CB1R) [µM] | inhibition at 10 µM (human recombinant CB1R) [%] | inhibition at 10 µM (human CB2R; read-out: % Displacement/ Max Conc. Tested, hCB2R) [%] | melting point [°C] | inhibition at 25 µM (human CB2R; max conc. tested 25 µM, read-out: % Displacement/ Max Conc. Tested, hCB2R (converted)) [%]
1 | 8.78 | CCN1CC(=NS(=O)(=O)c2ccc(C)cc2)N(CC)C1=O [Compound 1, N-[1,3-Diethyl-2-oxoimidazolidin-4-ylidene]-4-methylbenzenesulfonamide] | > 10 | 7.7 | > 10 | – | – | – | –
2 | 32.8 | CN1CC(=NS(=O)(=O)c2ccccc2)N(C)C1=O [Compound 4a, N-[1,3-Dimethyl-2-oxoimidazolidin-4-ylidene]benzenesulfonamide] | > 10 | 6.19 | > 10 | – | – | – | –
3 | 26.9 | Cc1ccc(S(=O)(=O)N=C2CN(C)C(=O)N2C)cc1 [Compound 4b, N-[1,3-Dimethyl-2-oxoimidazolidin-4-ylidene]-4-methylbenzenesulfonamide] | > 10 | 7.08 | > 10 | – | – | – | –
4 | 47.5 | CN1CC(=NS(=O)(=O)c2ccc(Cl)cc2)N(C)C1=O [Compound 4c, 4-Chloro-N-[1,3-dimethyl-2-oxoimidazolidin-4-ylidene]benzenesulfonamide] | > 10 | 12.3 | > 10 | – | – | – | –
5 | 14.9 | CN1CC(=NS(=O)(=O)c2ccc(Br)cc2)N(C)C1=O [Compound 4d, 4-Bromo-N-[1,3-dimethyl-2-oxoimidazolidin-4-ylidene]benzenesulfonamide] | > 10 | 10.7 | > 10 | – | – | – | –
6 | 22.7 | CCN1CC(=NS(=O)(=O)c2ccccc2)N(CC)C1=O [Compound 4e, N-[1,3-Diethyl-2-oxoimidazolidin-4-ylidene]benzenesulfonamide] | > 10 | 7.72 | > 10 | – | – | – | –
7 | 17.8 | CCN1CC(=NS(=O)(=O)c2ccc(Cl)cc2)N(CC)C1=O [Compound 4f, 4-Chloro-N-[1,3-diethyl-2-oxoimidazolidin-4-ylidene]benzenesulfonamide] | > 10 | 14.9 | > 10 | – | – | – | –
8 | 20.6 | CCN1CC(=NS(=O)(=O)c2ccc(Br)cc2)N(CC)C1=O [Compound 4g, 4-Bromo-N-[1,3-diethyl-2-oxoimidazolidin-4-ylidene]benzenesulfonamide] | > 10 | 13.4 | > 10 | – | – | – | –
9 | – | CC(C)(C)N1CC(=NS(C)(=O)=O)N(c2ccccc2)C1=O [Compound 9a, N-[1-tert-Butyl-2-oxo-3-phenylimidazolidin-4-ylidene]-methanesulfonamide] | > 10 | 8.84 | > 10 | 9.48 | – | – | –
10 | – | CC(C)(C)N1CC(=NS(=O)(=O)c2ccccc2)N(c2ccccc2)C1=O [Compound 9b, N-[1-tert-Butyl-2-oxo-3-phenylimidazolidin-4-ylidene]benzenesulfonamide] | > 10 | 22.6 | > 10 | 12 | – | – | –
11 | – | Cc1ccc(S(=O)(=O)N=C2CN(C(C)(C)C)C(=O)N2c2ccccc2)cc1 [Compound 9c, N-[1-tert-Butyl-2-oxo-3-phenylimidazolidin-4-ylidene]-4-methylbenzenesulfonamide] | > 10 | 5.39 | > 10 | 7.22 | – | – | –
12 | 4.64 | CC(C)(C)N1CC(=NS(=O)(=O)c2cccc(Br)c2)N(c2ccccc2)C1=O [Compound 9e, 3-Bromo-N-[1-tert-butyl-2-oxo-3-phenylimidazolidin-4-ylidene]benzenesulfonamide] | > 10 | 24.1 | > 10 | – | – | – | –
13 | 0 | Cc1cc(C)c(S(=O)(=O)N=C2CN(C(C)(C)C)C(=O)N2c2ccccc2)c(C)c1 [Compound 9f, N-[1-tert-Butyl-2-oxo-3-phenylimidazolidin-4-ylidene]-2,4,6-trimethylbenzenesulfonamide] | > 10 | 47.8 | > 10 | – | – | – | –
14 | – | CC(C)(C)N1CC(=NS(=O)(=O)c2cccc3ccccc23)N(c2ccccc2)C1=O [Compound 9g, N-[1-tert-Butyl-2-oxo-3-phenylimidazolidin-4-ylidene]naphthalene-1-sulfonamide] | > 10 | 11 | > 10 | 14.8 | – | – | –
15 | – | CC(C)(C)N1CC(=NS(=O)(=O)c2ccc3ccccc3c2)N(c2ccccc2)C1=O [Compound 9h, N-[1-tert-Butyl-2-oxo-3-phenylimidazolidin-4-ylidene]naphthalene-2-sulfonamide] | > 10 | 35.6 | > 10 | 8.35 | – | – | –
16 | – | CC(C)(C)N1CC(=NS(C)(=O)=O)N(CC2CC2)C1=O [Compound 10a, N-[1-tert-Butyl-3-cyclopropylmethyl-2-oxoimidazolidin-4-ylidene]methanesulfonamide] | > 10 | 13.4 | > 10 | 16.3 | – | 83.5 to 84 | –
17 | – | Cc1ccc(S(=O)(=O)N=C2CN(C(C)(C)C)C(=O)N2CC2CC2)cc1 [Compound 10c, N-[1-tert-Butyl-3-cyclopropylmethyl-2-oxoimidazolidin-4-ylidene]-4-methylbenzenesulfonamide] | 1.47 ± 0.05 | – | > 10 | 0 | – | 104.5 to 105 | 89.5
18 | – | CC(C)(C)N1CC(=NS(=O)(=O)c2ccc(Br)cc2)N(CC2CC2)C1=O [Compound 10d, 4-Bromo-N-[1-tert-Butyl-3-cyclopropylmethyl-2-oxoimidazolidin-4-ylidene]benzenesulfonamide] | 0.83 ± 0.25 | 77.2 | > 10 | 22.2 | – | 98 to 98.5 | –
19 | – | Cc1cc(C)c(S(=O)(=O)N=C2CN(C(C)(C)C)C(=O)N2CC2CC2)c(C)c1 [Compound 10f, N-[1-tert-Butyl-3-cyclopropylmethyl-2-oxoimidazolidin-4-ylidene]-2,4,6-trimethylbenzenesulfonamide] | 0.63 ± 0.14 | 81.3 | > 10 | 15.4 | – | 149 to 150 | –
20 | – | CC(C)(C)N1CC(=NS(=O)(=O)c2ccc3ccccc3c2)N(CC2CC2)C1=O [Compound 10h, N-[1-tert-Butyl-3-cyclopropylmethyl-2-oxoimidazolidin-4-ylidene]naphthalene-2-sulfonamide] | 0.78 ± 0.17 | 72.3 | > 10 | 8.18 | – | – | –
21 | – | COCCN1C(=O)N(C(C)(C)C)CC1=NS(C)(=O)=O [Compound 11a, N-[1-tert-Butyl-3-(2-methoxyethyl)-2-oxoimidazolidin-4-ylidene]methanesulfonamide] | > 10 | 14.1 | > 10 | 65.3 | – | 70.5 to 71 | –
22 | – | COCCN1C(=O)N(C(C)(C)C)CC1=NS(=O)(=O)c1ccccc1 [Compound 11b, N-[1-tert-Butyl-3-(2-methoxyethyl)-2-oxoimidazolidin-4-ylidene]benzenesulfonamide] | > 10 | 21.2 | > 10 | 52.6 | – | 104.5 to 105 | –
23 | – | CC(C)N1CC(=NS(=O)(=O)c2cccc3ccccc23)N(CC2CC2)C1=O [Compound 13, N-[3-(cyclopropylmethyl)-2-oxo-1-(propan-2-yl)imidazolidin-4-ylidene]naphthalene-1-sulfonamide] | 0.8 ± 0.02 | 78.3 | > 10 | 4.63 | – | – | –
24 | – | Cc1ccc(S(=O)(=O)N=C2CN(C(C)(C)C)C(=O)N2CC(C)C)cc1 [Compound 14, N-[1-tert-Butyl-3-(2-methylpropyl)-2-oxoimidazolidin-4-ylidene]-4-methylbenzene-1-sulfonamide] | > 10 | 47.8 | > 10 | 0.02 | – | – | –
25 | – | CC(C)(C)N1C(=O)N(CC2CC2)CC1=NS(=O)(=O)c1ccccc1 [Compound 15, N-[3-tert-Butyl-1-(cyclopropylmethyl)-2-oxoimidazolidin-4-ylidene]benzenesulfonamide] | 1.61 ± 0.16 | 73.9 | > 10 | 0.01 | – | – | –

Row | SMILES | inhibition at 10 µM (human recombinant CB1R; max conc. tested 10 µM) [%] | Ki (human CB2R) [µM] | inhibition at 10 µM (human CB2R; [1]) [%] | Ki (human recombinant CB1R) [µM] | inhibition at 10 µM (human recombinant CB1R) [%] | inhibition at 10 µM (human CB2R; read-out: % Displacement/ Max Conc. Tested, hCB2R) [%] | melting point [°C] | inhibition at 25 µM (human CB2R; max conc. tested 25 µM, read-out: % Displacement/ Max Conc. Tested, hCB2R (converted)) [%]
26 | CC(C)(C)N1CC(=NS(=O)(=O)c2ccc(Br)cc2)N(c2ccccc2)C1=O [Compound 9d, 4-Bromo-N-[1-tert-butyl-2-oxo-3-phenylimidazolidin-4-ylidene]benzenesulfonamide] | 17.4 | > 10 | – | – | – | 53.5 | – | –
